Data on one substance can be found in patent publication US20190127456A1, “METHODS OF TREATING IDIOPATHIC PULMONARY FIBROSIS” (FibroGen, Inc., priority 2017, published 2019).

Experiment [1] deals with IPF. Nature of the experiment: Phase two study in IPF patients: UCSD Shortness of Breath Questionnaire (UCSD-SOBQ). Type of experiment: in vivo, human. Particulars: for mean UCSD-SOBQ score: IPF patients, n=22, FIG. 6 change from baseline. An excerpt:
A sub-set of patients in the Phase two clinical trial described above in Example 2 (pamrevlumab n=22, placebo n=20), self-administered the University of California, San Diego—Shortness of Breath Questionnaire (UCSD-SOBQ) at the start of therapy (baseline) and then every 12 weeks while enrolled in the 48 week study. The UCSD-SOBQ has been validated as an acceptable measure to assess change in dyspnea over time in IPF (Swigris et al., Respir Med. 2012 October; 106(10): 1447-1455).
The questionnaire has 24 sections that assess dyspnea associated with activities of daily living (ADLs) in different lung disorders, including IPF. Twenty-one sections relate to the severity of dyspnea experienced during different daily activities, while three sections assess the limitations due to shortness of breath, fear of harm from overexertion and fear of shortness of breath. Each question has a 6-point scale (0=“not at all” to 5=“maximal or unable to do because of breathlessness”. The total score ranges from 0 to 120, with higher scores indicating greater dyspnea.
An ANCOVA model with treatment as fixed effect and baseline UCSD-SOBQ score as covariate was applied to observed and imputed data at each visit. Missing results at post-baseline visits were mputed using the predicted values from a random coefficient model. The analysis included all subjects who had baseline and at least one post-baseline UCSD-SOBQ evaluation.

The subject of experiment [2] is radiation-induced lung fibrosis. Nature of the experiment: Mouse radiation-induced lung fibrosis model: lung density by HRCT. The experiment is classed as in vivo. The following applies: 14.5 Gy irradiated mice, treated 8 weeks from week 16, measured at 24 weeks; FIG. 2. Here is the method: The objective of this study was to compare the activity of pamrevlumab monotherapy to either pirfenidone or nintedanib alone, and to evaluate the potential for enhanced activity of the combined agents. […] In this study, mice received thoracic irradiation (RT), followed by the therapeutic administration of the agents at 16 weeks post-irradiation when lung remodeling was evident by HRCT. After 8 weeks of drug treatment, lung density and volume were assessed by HRCT, lung function was assessed by blood gas analysis, and mice were sacrificed for histologic and gene expression analysis. C57B1/6 mice were irradiated with 14.5 Gy photons; full thorax, single dose. Treatment with therapeutic agent(s) (pamrevlumab, pirfenidone, and/or nintedanib) was initiated 16 weeks post-irradiation and continued for 8 weeks. Pamrevlumab (FG) was given IP, BIW, at 40 mg/kg; pirfenidone (PF) was given PO in chow, QD, at 300 mg/kg; nintedanib (ND) was given PO in chow, QD, at 100 mg/kg. Treatment with each agent alone, with combinations of two, and with a triple combination were carried out. Controls included non-irradiated mice, mice that were irradiated and not treated, and mice that were irradiated and given human IgG. Endpoint measurements were taken at 24 weeks for HRCT (lung structure), blood gas analysis (lung function), histology and gene expression analysis. […]

Regarding pamrevlumab, the “mean UCSD-SOBQ score” value in experiment [1] (Week 12) was 1.98; in experiment [1] (Week 36), 3.76; in experiment [1] (Week 48) it was 2.26. Further, the “difference in mean UCSD-SOBQ score between the two arms” value in experiment [1] (pamrevlumab vs placebo, Week 48, p-value=0.0460) was −13.32 points. In addition, in experiment [2], the “radiation-induced increase in lung density (Hounsfield Units)” value was “significantly inhibited the increase in radiation-induced lung density from baseline”.
